Patent publication US20100311674A1, “PHARMACEUTICAL COMPOSITIONS WITH A MECHANISM OF MULTI-TARGET RECEPTOR RETROACTION FOR TREATING DEPRESSION” (Yu-Fen Chi, priority 2007, published 2010)

Assays:
[1] = tested on: unpredictable long-term stimulus model; assay: Volume test of drinking sucrose, unpredictable long-term stimulus model (Experiment 8); format: in vivo, rat; settings: 2 mg/kg/d into the stomach, 24 days; 1% sucrose for 1 hour
Method: (§1) Unpredictable long-term stimulus model: Health Wistar male rats, secondary, 240˜270 g of body weight, are purchased from Beijing Vital River Experimental Animal Technology Ltd. Co. (The quality certificate number: SOCK (JING) 2002-2003).
(§2) The above pharmaceuticals are prepared with 0.5% of sodium carboxymethylcellulose (CMC-Na) for feeding into the stomach. Benzylpenicillin sodium for injection is the product of North China Pharmaceutical Huasheng Co. Ltd. (Lot: S0511204), and norepinephrine (NE) and 5-hydrotryptamine (5-HT) standards are the products of Sigma Co. Other reagents are all marketed.
8.4.1 Group division and administration of drug: The rats are grouped randomly into 6 groups. 1. False therapy group; 2. model group (control); 3. high dose of Embodiment 4 (60 mg/kg/d); 4. middle dose of Embodiment 4 (30 mg/kg/d); 5. low dose of Embodiment 4 (15 mg/kg/d); and 6. […]
8.5.5 Volume test of drinking sucrose: The sucrose-intake volume of the rats are compared. […] The drinking volumes are determined before the stimulus and after 3 weeks of the stimulus. […] The differences between the bottle weight before and after the rat drinking sucrose for 1 hour are measured and recorded, and the sucrose-drinking volume for each time is calculated. […]
(§3) 8.6 Statistic calculation: The experimental data are represented as […], and the experimental result is calculated as ANOVA by SPSS 11.5 statistic software.

[2] = tested on: unpredictable long-term stimulus model; assay: Open field activity experiment, unpredictable long-term stimulus model (Experiment 8); format: in vivo, rat; settings: 2 mg/kg/d into the stomach, 24 days; within 3 minutes
From the text: (§4) 7.5.1 Open field activity experiment: The open field activity box (1 m×1 m×0.4 m) is constructed by the light blue plywood and the aluminum alloy frame. The box bottom is separated into 25 grids (20 cm×20 cm for each grid), the circumference is the peripheral grids (16 grids), and others are the central grids (9 grids). The rat is placed in the center of the central grids, and the rat's cross-grid number (the number of crossing into the neighboring gird more than 3 claws) and rat's standing number (two forelimbs leaving the ground for more than 1 cm) are calculated/observed within 3 minutes.
as §1
as §2, with “marketed. […]” for “marketed.”
as §3

[3] = Body weight measurement, unpredictable long-term stimulus model (Experiment 8); format: in vivo, rat; settings: 2 mg/kg/d into the stomach, 24 days
Method: as §1, §2
8.4.1 Group division and administration of drug: The rats are grouped randomly into 6 groups. 1. False therapy group; 2. model group (control); 3. high dose of Embodiment 4 (60 mg/kg/d); 4. middle dose of Embodiment 4 (30 mg/kg/d); 5. low dose of Embodiment 4 (15 mg/kg/d); and 6. […] The test drugs and the positive control drug are prepared with 0.5% of CMC-Na for feeding into the stomach once every day.
Unpredictable long-term stimulus model: The rats in the control group eat and drink normally, and there is no stimulus performed. […]
as §3

ICR mice = assay: Mouse tail-hanging experiment (Experiment 5); format: in vivo
Method: 5.1 Experimental animals: ICR mice, male, 22.0±2 g of body weight, secondary, are provided by the Experimental Animal Science Department of Capital Medical University, Beijing. 5.2 Experiment pharmaceuticals: The pharmaceutical of Embodiment 3 is provided by Beijing Wonner Biotech. […] High dose of Embodiment 3 (80 mg/kg/d); 2. middle dose of Embodiment 3 (40 mg/kg/d); and 3. low dose of Embodiment 3 (20 mg/kg/d). 5.5.1 Group division and administration of drug: The mice are grouped randomly, and 10 mice are in each group. 1. High dose of Embodiment 3 (80 mg/kg, P.O., administered for 7 days); 2. middle dose of Embodiment 3 (40 mg/kg, P.O., administered for 7 days); 3. low dose of Embodiment 3 (20 mg/kg, P.O., administered for 7 days); 4. […] After 1 hour of the last administration of drug, the mouse tail-hanging experiment is proceeded. 5.5.2 Experimental method: The mouse's tail (1 cm to the tail end) is taped on the wood strip higher than the platform for 5 cm and hung up for 6 minutes. The time of non-movement of the mouse for the last 5 minutes is recorded. 5.5.3 Statistic calculation: The experimental data are represented as X+SD, and the experimental result is calculated as ANOVA by SPSS 11.5 statistic software.

[4] = tested on: NE and 5-HT contents in the rat cerebral cortex; assay: HPLC-electrochemical test of NE and 5-HT contents in the rat cerebral cortex, unpredictable long-term stimulus model (Experiment 8); format: in vivo; settings: 2 mg/kg/d into the stomach, 24 days
Method: 8.4.1 Group division and administration of drug: The rats are grouped randomly into 6 groups. […] The test drugs and the positive control drug are prepared with 0.5% of CMC-Na for feeding into the stomach once every day.
8.5.6 HPLC-electrochemical test: The amounts of norepinephrine and 5-hydrotryptamine in the rat cerebral cortex are measured.
8.6 Statistic calculation: The experimental data are represented as 7±SD, and the experimental result is calculated as ANOVA by SPSS 11.5 statistic software.

[5] = tested on: rat olfactory bulb lesion model; assay: Open field activity experiment of the rat olfactory bulb lesion model (Experiment 7); format: in vivo; settings: 2 mg/kg/d into the stomach, 24 days; within 3 minutes
Method: Olfactory bulb lesion model: Health Wistar male rats, secondary, 330±20 g of body weight, are purchased from Beijing Vital River Experimental Animal Technology Ltd. Co. (The quality certificate number: SCXK (JING) 2002-2003).
as §2
7.4.1 Group division and administration of drug: The rats are grouped randomly into 6 groups. 1. […]
as §4, with “The box bottom is separated into 25 grids (20 cm×20 cm for each grid), the circumference is the peripheral grids (16 grids), and others are the central grids (9 grids).” left out
7.6 Statistic calculation: The experimental data are represented as X+SD, and the experimental result is calculated as ANOVA by SPSS 11.5 statistic software.

Fc1ccc([C@@H]2CCNC[C@H]2COc2ccc3c(c2)OCO3)cc1 [Paroxetine]
Sucrose-intake volume [1]: 26.29 ± 4.87 g
Horizontal movement (cross-grid number) [2]: 61.85 ± 21.68
Vertical movement (standing number) [2]: 14.69 ± 4.2
Increasing body weight [3]: 96.85 ± 9.30 g
Time of non-movement (ICR mice; 3 mg/kg P.O. 7 days, 1 h after last dose, last 5 of 6 min): 75.33 ± 22.91 s
Effect on time of non-movement after the mouse's tail is hung up (in words) (ICR mice; high and middle doses of Embodiment 3, Paroxetine, significantly different from control): decrease the time of non-movement
NE [4]: 220.5419 ± 38.32 nmol/L brain tissue extract
Horizontal movement (cross-grid number) [5]: 55.36 ± 25.96
Vertical movement (standing number) [5]: 14.36 ± 5.55
